Values joined by “and” are separate entries in the source; they are usually repeats but may differ in a detail not shown here. Equal entries are not always repeated.
Legend:
MKK1 = MKK1 (Homo sapiens, UniProt Q02750); assay: Kinase panel assay, MKK1; format: biochemical; details: 1 μM inhibitor, 0.1 mM ATP, average of triplicate
MSK1 = MSK1 (Homo sapiens, UniProt O75582); assay: Kinase panel assay, MSK1; format: biochemical; details: 1 μM inhibitor, 0.1 mM ATP, average of triplicate
PDK1 [1] = target: T1, PDK1 (Homo sapiens, UniProt O15530); assay: PDK1 protein kinase assay with PDK1tide substrate and [γ-32P]ATP; format: biochemical; details: 1 μM inhibitor, 0.1 mM ATP, average of triplicate
T1 sequence (O15530 1-556): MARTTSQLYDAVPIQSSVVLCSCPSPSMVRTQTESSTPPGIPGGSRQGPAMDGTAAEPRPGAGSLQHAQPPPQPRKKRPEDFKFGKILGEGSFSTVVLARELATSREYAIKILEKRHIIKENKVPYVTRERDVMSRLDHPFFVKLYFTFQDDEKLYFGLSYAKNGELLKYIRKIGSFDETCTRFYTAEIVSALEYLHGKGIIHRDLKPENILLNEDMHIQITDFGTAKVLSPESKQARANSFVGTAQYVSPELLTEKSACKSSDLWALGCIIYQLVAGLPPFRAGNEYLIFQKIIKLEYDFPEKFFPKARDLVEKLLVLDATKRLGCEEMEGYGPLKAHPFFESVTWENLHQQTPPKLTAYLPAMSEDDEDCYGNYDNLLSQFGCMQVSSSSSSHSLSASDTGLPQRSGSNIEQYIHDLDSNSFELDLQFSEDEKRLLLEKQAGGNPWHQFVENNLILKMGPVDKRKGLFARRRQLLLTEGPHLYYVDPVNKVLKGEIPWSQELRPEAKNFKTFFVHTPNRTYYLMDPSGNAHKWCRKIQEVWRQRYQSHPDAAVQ
Protocol: (§1) Other protein kinases employed in Table 5, were assayed as described previously.
A structure-based sequence alignment of known kinase structures was obtained from, which was used to validate the sequence-based sequence alignment (Table 5).

SAPK2α/p38 = SAPK2α/p38 (Homo sapiens, UniProt Q16539); assay: Kinase panel assay, SAPK2α/p38; format: biochemical; details: 1 μM inhibitor, 0.1 mM ATP, average of triplicate
NEK6 = NEK6 (Homo sapiens, UniProt Q9HC98); assay: Kinase panel assay, NEK6; format: biochemical; details: 1 μM inhibitor, 0.1 mM ATP, average of triplicate
Sequence of NEK6 (Q9HC98 whole entry, species assumed): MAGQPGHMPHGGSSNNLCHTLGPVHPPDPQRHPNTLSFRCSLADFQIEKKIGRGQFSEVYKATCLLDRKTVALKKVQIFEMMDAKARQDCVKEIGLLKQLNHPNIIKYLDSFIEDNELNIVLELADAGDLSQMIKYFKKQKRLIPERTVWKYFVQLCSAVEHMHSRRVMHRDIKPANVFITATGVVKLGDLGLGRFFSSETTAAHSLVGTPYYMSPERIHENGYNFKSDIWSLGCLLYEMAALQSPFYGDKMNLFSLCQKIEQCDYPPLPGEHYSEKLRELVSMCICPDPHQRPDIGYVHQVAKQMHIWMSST

CK1 = assay: Kinase panel assay, CK1; format: biochemical; details: 1 μM inhibitor, 0.1 mM ATP, average of triplicate
MAPKAP-K1a = MAPKAP-K1a (Homo sapiens, UniProt Q15418); assay: Kinase panel assay, MAPKAP-K1a; format: biochemical; details: 1 μM inhibitor, 0.1 mM ATP, average of triplicate
S6K1 = S6K1 (Homo sapiens, UniProt P23443); assay: Kinase panel assay, S6K1; format: biochemical; details: 1 μM inhibitor, 0.1 mM ATP, average of triplicate
Sequence of S6K1 (P23443 whole entry): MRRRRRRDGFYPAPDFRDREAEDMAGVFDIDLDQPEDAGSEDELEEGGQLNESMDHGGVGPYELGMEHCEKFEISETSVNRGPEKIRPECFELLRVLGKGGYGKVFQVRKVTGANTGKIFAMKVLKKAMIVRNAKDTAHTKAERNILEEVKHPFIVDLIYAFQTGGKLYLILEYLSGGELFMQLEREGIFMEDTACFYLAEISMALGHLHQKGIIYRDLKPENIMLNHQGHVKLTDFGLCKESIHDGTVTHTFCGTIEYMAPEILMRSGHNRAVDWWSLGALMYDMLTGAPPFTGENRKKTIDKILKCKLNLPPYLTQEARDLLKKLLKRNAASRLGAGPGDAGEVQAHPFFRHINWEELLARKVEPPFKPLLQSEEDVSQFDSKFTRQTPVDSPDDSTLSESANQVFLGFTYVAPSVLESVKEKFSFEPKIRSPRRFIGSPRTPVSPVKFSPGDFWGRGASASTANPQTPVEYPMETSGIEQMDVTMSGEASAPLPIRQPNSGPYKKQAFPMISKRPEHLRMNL

MAPKAP-K2 = MAPKAP-K2 (Homo sapiens, UniProt P49137); assay: Kinase panel assay, MAPKAP-K2; format: biochemical; details: 1 μM inhibitor, 0.1 mM ATP, average of triplicate
PRAK = PRAK (Homo sapiens, UniProt Q8IW41); assay: Kinase panel assay, PRAK; format: biochemical; details: 1 μM inhibitor, 0.1 mM ATP, average of triplicate
Sequence of PRAK (Q8IW41 whole entry, species assumed): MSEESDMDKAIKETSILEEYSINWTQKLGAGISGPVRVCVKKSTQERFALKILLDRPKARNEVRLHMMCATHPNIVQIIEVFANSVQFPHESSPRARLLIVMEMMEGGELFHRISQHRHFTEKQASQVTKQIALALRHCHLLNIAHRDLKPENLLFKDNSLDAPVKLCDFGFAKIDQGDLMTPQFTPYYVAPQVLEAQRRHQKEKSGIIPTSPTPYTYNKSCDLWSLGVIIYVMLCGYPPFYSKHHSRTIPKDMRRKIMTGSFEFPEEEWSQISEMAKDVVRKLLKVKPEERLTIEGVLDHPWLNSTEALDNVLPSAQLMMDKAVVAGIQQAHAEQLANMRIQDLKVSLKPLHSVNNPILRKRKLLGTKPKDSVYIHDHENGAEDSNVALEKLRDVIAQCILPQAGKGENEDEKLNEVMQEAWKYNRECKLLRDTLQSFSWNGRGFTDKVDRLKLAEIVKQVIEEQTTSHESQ

CHK1 [2] = target: T2, CHK1 (Homo sapiens, UniProt O14757); details: literature [20]; cited from earlier work
T2 sequence (O14757 1-476): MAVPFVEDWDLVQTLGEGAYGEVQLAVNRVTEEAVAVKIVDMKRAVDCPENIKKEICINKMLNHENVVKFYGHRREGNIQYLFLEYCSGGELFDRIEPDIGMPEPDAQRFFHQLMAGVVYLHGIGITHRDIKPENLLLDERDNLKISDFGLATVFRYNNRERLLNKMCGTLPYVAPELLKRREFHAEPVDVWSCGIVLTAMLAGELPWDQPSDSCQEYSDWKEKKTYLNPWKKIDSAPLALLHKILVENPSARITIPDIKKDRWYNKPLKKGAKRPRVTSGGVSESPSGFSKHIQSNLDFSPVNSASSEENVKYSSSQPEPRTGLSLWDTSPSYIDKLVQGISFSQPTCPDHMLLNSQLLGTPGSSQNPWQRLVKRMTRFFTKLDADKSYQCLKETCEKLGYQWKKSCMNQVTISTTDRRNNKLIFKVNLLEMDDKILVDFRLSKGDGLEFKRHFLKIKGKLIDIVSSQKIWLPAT

SAPK4/p38δ = SAPK4/p38δ (Homo sapiens, UniProt O15264); assay: Kinase panel assay, SAPK4/p38δ; format: biochemical; details: 1 μM inhibitor, 0.1 mM ATP, average of triplicate
SAPK2β/p38β2 = SAPK2β/p38β2 (Homo sapiens, UniProt Q15759); assay: Kinase panel assay, SAPK2β/p38β2; format: biochemical; details: 1 μM inhibitor, 0.1 mM ATP, average of triplicate
Sequence of SAPK2β/p38β2 (Q15759 whole entry): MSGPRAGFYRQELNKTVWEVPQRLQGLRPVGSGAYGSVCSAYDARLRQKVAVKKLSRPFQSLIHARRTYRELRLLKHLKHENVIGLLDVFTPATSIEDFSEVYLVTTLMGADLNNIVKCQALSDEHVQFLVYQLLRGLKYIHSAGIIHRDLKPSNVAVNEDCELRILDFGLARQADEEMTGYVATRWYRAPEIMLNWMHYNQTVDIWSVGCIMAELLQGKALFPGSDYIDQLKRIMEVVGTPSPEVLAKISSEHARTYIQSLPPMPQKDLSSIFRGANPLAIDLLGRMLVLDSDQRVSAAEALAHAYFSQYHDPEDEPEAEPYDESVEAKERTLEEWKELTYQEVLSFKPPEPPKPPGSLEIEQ

PKA = PKA (Homo sapiens, UniProt P17612); assay: Kinase panel assay, PKA; format: biochemical; details: 1 μM inhibitor, 0.1 mM ATP, average of triplicate
AMPK = assay: Kinase panel assay, AMPK; format: biochemical; details: 1 μM inhibitor, 0.1 mM ATP, average of triplicate
Protocol: as §1

CSK = CSK (Homo sapiens, UniProt P41240); assay: Kinase panel assay, CSK; format: biochemical; details: 1 μM inhibitor, 0.1 mM ATP, average of triplicate
Sequence of CSK (P41240 whole entry, species assumed): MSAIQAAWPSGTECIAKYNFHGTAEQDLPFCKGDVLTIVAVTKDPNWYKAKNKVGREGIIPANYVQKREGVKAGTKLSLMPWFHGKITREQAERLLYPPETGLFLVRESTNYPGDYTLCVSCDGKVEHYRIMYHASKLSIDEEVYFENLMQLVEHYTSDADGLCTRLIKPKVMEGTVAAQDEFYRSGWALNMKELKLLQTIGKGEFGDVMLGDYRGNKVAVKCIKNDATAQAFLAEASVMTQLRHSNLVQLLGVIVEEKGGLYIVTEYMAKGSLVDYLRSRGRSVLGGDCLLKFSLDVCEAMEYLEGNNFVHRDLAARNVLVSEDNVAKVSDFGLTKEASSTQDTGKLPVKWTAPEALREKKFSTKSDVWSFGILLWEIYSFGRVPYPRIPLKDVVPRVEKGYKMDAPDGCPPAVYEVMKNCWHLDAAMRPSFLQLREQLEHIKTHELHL

PDK1 [3] = target: T1, PDK1; details: literature [21]; cited from earlier work
JNKSAPK1c = JNKSAPK1c (Homo sapiens, UniProt P45983); assay: Kinase panel assay, JNKSAPK1c; format: biochemical; details: 1 μM inhibitor, 0.1 mM ATP, average of triplicate
Lck = Lck (Homo sapiens, UniProt P06239); assay: Kinase panel assay, Lck; format: biochemical; details: 1 μM inhibitor, 0.1 mM ATP, average of triplicate
Sequence of Lck (P06239 whole entry, species assumed): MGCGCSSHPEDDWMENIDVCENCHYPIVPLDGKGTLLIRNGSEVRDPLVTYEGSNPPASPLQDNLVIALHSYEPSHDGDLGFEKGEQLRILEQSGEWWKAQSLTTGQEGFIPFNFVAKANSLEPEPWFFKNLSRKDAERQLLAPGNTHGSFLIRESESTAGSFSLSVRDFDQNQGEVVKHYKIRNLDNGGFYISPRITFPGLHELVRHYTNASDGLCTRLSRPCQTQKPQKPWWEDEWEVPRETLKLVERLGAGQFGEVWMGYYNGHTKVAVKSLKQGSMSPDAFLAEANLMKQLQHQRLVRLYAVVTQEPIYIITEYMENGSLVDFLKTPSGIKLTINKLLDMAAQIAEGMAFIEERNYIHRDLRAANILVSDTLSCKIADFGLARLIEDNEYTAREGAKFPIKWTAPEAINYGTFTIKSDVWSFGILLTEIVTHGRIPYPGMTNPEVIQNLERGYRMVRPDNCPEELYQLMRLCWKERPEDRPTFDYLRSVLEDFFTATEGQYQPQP

SGK1 = SGK1 (Homo sapiens, UniProt O00141); assay: Kinase panel assay, SGK1; format: biochemical; details: 1 μM inhibitor, 0.1 mM ATP, average of triplicate
Sequence of SGK1 (O00141 whole entry): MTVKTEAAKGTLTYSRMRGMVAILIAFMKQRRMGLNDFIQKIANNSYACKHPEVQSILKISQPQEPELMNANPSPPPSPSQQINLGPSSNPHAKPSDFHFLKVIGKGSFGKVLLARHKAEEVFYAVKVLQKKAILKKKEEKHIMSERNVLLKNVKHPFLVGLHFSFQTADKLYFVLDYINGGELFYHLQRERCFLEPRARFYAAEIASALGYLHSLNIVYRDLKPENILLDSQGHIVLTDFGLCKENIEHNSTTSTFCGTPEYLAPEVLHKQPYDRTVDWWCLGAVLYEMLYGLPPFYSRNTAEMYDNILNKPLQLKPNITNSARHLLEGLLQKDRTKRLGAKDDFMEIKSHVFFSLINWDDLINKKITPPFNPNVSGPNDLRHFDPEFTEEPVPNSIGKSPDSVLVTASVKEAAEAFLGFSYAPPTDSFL

GSK3β = GSK3β (Homo sapiens, UniProt P49841); assay: Kinase panel assay, GSK3β; format: biochemical; details: 1 μM inhibitor, 0.1 mM ATP, average of triplicate
DYRK1α = DYRK1α (Homo sapiens, UniProt Q13627); assay: Kinase panel assay, DYRK1α; format: biochemical; details: 1 μM inhibitor, 0.1 mM ATP, average of triplicate
PHOS.KINASE = PHOS.KINASE (Oryctolagus cuniculus, UniProt P00518); assay: Kinase panel assay, phosphorylase kinase; format: biochemical; details: 1 μM inhibitor, 0.1 mM ATP, average of triplicate
ROCK-II = ROCK-II (Homo sapiens, UniProt O75116); assay: Kinase panel assay, ROCK-II; format: biochemical; details: 1 μM inhibitor, 0.1 mM ATP, average of triplicate
CK2 = CK2 (Homo sapiens, UniProt P68400); assay: Kinase panel assay, CK2; format: biochemical; details: 1 μM inhibitor, 0.1 mM ATP, average of triplicate
PKCα = PKCα (Homo sapiens, UniProt P17252); assay: Kinase panel assay, PKCα; format: biochemical; details: 1 μM inhibitor, 0.1 mM ATP, average of triplicate
CHK1 [4] = target: T2, CHK1; assay: Kinase panel assay, CHK1; format: biochemical; details: 1 μM inhibitor, 0.1 mM ATP, average of triplicate
PKBΔPH = PKBΔPH (Homo sapiens, UniProt P31749); assay: biochemical; details: read-out: percentage of kinase activity compared to control incubations, PKBΔPH
Sequence of PKBΔPH (P31749 118-480 limits assumed, stated change not applied): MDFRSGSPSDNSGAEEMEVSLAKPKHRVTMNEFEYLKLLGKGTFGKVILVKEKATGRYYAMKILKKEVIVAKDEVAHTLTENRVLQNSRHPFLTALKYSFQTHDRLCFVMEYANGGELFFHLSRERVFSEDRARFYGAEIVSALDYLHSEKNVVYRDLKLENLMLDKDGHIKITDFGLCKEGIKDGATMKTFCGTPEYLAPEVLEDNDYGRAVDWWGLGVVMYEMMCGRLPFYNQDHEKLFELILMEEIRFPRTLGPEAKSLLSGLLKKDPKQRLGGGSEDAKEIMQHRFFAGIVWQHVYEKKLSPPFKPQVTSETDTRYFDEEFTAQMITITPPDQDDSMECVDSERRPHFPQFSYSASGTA
Protocol: as §1

Sequence of MSK1 (O75582 whole entry): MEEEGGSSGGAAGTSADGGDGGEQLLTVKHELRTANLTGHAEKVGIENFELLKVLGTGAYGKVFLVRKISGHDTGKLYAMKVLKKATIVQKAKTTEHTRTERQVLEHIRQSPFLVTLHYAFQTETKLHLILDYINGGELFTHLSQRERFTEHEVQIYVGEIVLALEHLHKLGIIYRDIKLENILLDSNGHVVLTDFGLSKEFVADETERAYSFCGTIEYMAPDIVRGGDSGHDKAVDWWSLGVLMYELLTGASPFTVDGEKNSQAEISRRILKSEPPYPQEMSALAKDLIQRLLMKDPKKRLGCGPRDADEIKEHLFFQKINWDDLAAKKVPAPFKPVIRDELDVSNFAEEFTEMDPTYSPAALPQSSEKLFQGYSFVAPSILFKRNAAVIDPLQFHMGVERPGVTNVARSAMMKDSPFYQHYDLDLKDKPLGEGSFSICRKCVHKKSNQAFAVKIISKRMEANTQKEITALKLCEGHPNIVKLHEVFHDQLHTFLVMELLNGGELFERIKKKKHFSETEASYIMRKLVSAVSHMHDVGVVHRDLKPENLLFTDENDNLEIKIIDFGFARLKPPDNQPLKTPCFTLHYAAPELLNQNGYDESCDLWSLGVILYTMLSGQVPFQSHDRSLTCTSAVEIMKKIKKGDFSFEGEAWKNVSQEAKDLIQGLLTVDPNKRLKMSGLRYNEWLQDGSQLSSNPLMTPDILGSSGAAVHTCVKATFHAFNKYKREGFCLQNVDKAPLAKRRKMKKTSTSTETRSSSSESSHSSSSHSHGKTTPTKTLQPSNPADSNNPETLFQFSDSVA
Sequence of MKK1 (Q02750 whole entry, species assumed): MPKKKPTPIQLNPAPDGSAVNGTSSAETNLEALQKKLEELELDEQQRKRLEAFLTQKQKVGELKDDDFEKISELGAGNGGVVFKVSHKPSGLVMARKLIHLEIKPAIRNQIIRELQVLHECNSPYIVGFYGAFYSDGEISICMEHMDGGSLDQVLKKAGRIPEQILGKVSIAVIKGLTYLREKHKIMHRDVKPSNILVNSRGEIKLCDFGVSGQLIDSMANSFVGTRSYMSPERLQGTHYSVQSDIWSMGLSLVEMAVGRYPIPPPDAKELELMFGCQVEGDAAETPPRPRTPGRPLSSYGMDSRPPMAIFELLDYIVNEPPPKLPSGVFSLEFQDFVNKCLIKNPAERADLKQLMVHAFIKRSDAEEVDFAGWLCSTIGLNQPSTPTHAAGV

SMILES: CN[C@@H]1C[C@H]2O[C@@](C)([C@@H]1OC)n1c3ccccc3c3c4c(c5c6ccccc6n2c5c31)C(=O)N[C@H]4O [UCN-01, 7-hydroxyl staurosporine]
- percentage of kinase activity compared to control incubations, MKK1 (MKK1): 53 ± 1%
- percentage of kinase activity compared to control incubations, MSK1 (MSK1): 11% and 11 ± 0%
- percentage of kinase activity compared to control incubations, PDK1 (PDK1 [1]): 0 ± 1%
- percentage of kinase activity compared to control incubations, SAPK2α/p38 (SAPK2α/p38): 107 ± 5%
- percentage of kinase activity compared to control incubations, NEK6 (NEK6): 80 ± 7%
- percentage of kinase activity compared to control incubations, CK1 (CK1): 96 ± 0%
- percentage of kinase activity compared to control incubations, MAPKAP-K1a (MAPKAP-K1a): 1 ± 1%
- percentage of kinase activity compared to control incubations, S6K1 (S6K1): 21 ± 4%
- percentage of kinase activity compared to control incubations, MAPKAP-K2 (MAPKAP-K2): 60 ± 1%
- percentage of kinase activity compared to control incubations, PRAK (PRAK): 89 ± 4%
- inhibition of Chk1, recent reports (CHK1 [2]): low nM range
- percentage of kinase activity compared to control incubations, SAPK4/p38δ (SAPK4/p38δ): 100 ± 7%
- percentage of kinase activity compared to control incubations, SAPK2β/p38β2 (SAPK2β/p38β2): 106 ± 4%
- percentage of kinase activity compared to control incubations, PKA (PKA): 27 ± 2%
- percentage of kinase activity compared to control incubations, AMPK (AMPK): 1 ± 1%
- percentage of kinase activity compared to control incubations, CSK (CSK): 58 ± 3%
- inhibition of PDK1, recent reports (PDK1 [3]): low nM range
- percentage of kinase activity compared to control incubations, JNKSAPK1c (JNKSAPK1c): 112 ± 6%
- percentage of kinase activity compared to control incubations, Lck (Lck): 3 ± 1%
- percentage of kinase activity compared to control incubations, SGK1 (SGK1): 25% and 22 ± 4%
- percentage of kinase activity compared to control incubations, GSK3β (GSK3β): 25 ± 5%
- percentage of kinase activity compared to control incubations, DYRK1α (DYRK1α): 15 ± 2%
- percentage of kinase activity compared to control incubations, PHOS.KINASE (PHOS.KINASE): 1 ± 2%
- percentage of kinase activity compared to control incubations, ROCK-II (ROCK-II): 13 ± 2%
- percentage of kinase activity compared to control incubations, CK2 (CK2): 102 ± 11%
- percentage of kinase activity compared to control incubations, PKCα (PKCα): 1 ± 0%
- percentage of kinase activity compared to control incubations, CHK1 (CHK1 [4]): 1 ± 0%
- remaining activity at 1 µM (PKBΔPH): 9 ± 1%

— US7792665B2, “Method for designing a compound based on the three dimensional structure of phosphoinositide dependent protein kinase 1 (PDK1)” (Medical Research Council, priority 2002, dated 2010)
